{"source": "patent US12391701B2", "about": "“Chromene-based compounds, methods and uses thereof” (University of Minho, priority 2019, dated 2025)", "key": {"[1]": {"test_system": "Caki-2 cediranib-resistant cells", "assay": "BrdU proliferation assay, Caki-2 cediranib-resistant", "type": "cell-based", "conditions": "24 and 48 hours; IC50 and ½IC50; drug-resistant"}, "[2]": {"test_system": "acute leukemia cell line Jurkat", "assay": "Cell viability MTS assay, Jurkat", "type": "cell-based", "conditions": "Homo sapiens, 72 hours", "method": "(§1) In an embodiment, the antiproliferative activity of compounds MC408, MC409, MC421 and MC406 was further determined against glioma cell lines (U87, GAMG and GL18) and acute leukemia cell lines (HL-60, KG-1 and Jurkat). This was done in order to evaluate if the compounds presented an equally interesting anticancer profile in other cancer cell models. Cell viability was determined using the MTS assay, after exposure of the cells to the respective compounds for 72 hours at appropriate concentration ranges to determine the respective IC50 values.\n(§2) In an embodiment, three human breast cancer cell lines Hs578T, MDA-MB-468 and MCF-7, and a normal breast cell line MCF-10A, were obtained from ATCC (American Type Culture Collection). The cancer cell lines were cultured in Dulbecco's modified Eagle medium, 4.5 g/l glucose (DMEM, Gibco) supplemented with 10% heating inactivated Fetal Bovine Serum (FBS, Gibco) and 1% antibiotic solution (Penicillin-Streptomycin, Gibco). The normal cell line was cultured in Dulbecco's Modified Eagle Medium: Nutrient Mixture F-12 (DMEM/F12, Gibco) supplemented with 5% heating inactivated FBS (Gibco), 1% antibiotic solution (Penicillin-Streptomycin, Gibco), 1% steroid hormone (Hydrocortisone, Sigma-Aldrich), 0.1% peptide hormone (Insulin, Sigma-Aldrich) and 0.01% protein complex (Cholera Toxin, Gibco). Two distinct human acute myeloid leukemia (AML) cell lines, HL-60 (FAB M2) and KG-1 (erythroleukemia-FAB M6), and one human lymphoblastic leukemia (ALL) cell line, Jurkat (T cell type), were also used. These three cell lines were obtained from German Collection of Microorganisms and Cell cultures (DMSZ®, Deutsche Sammlung von Mikroorganismen and Zellkulturen in German). Cells were cultured in RPMI 1640 medium (Biochrom®-Merck Millipore) supplemented with 10% heating inactivated FBS (Biochrom®-Merck Millipore) and 1% antibiotic/antimitotic mixture (Invitrogen®). Three human glioblastoma (GBM) cell line models, two established and commercially available cell lines (U87MG and GAMG, kind gift from Rui M. Reis) and one primary GBM culture (GLIB) were also used. GBM cells were cultures in DMEM (Biochrom-Merck Millipore), all supplemented with 10% FBS. The Renal cell carcinoma cell lines A498, 786-O, Caki-2 and HK2 were obtained from ATCC. The cancer cell line A498 was cultured in MEM medium (Biochrom®-Merck Millipore), 786-O was cultured in RPMI 1640 medium (Biochrom®-Merck Millipore), Caki-2 was cultured in Mc Coys medium (Biochrom®-Merck Millipore) and HK2 was cultured in RPMI 1640 medium (Biochrom®-Merck Millipore). All the media were supplemented with 10% heat inactivated FBS (Biochrom®-Merck Millipore) and 1% antibiotic/antimitotic mixture (Invitrogen®). All cells were grown in a humidified incubator at 37° C. and 5% CO2. […]"}, "[3]": {"test_system": "Hs578t cells", "assay": "Annexin V/PI flow cytometry, Hs578t", "type": "cell-based, human", "conditions": "IC50 concentration; 24 h", "source_text": "(§3) In an embodiment, to understand the mechanisms leading to cell death, cells were studied for the induction of apoptosis by flow cytometry. […] Externalization of phosphatidylserine occurs during the early apoptotic events. While annexin V binds to phosphatidylserine, PI stains only cells that have lost their membrane integrity, an experimental procedure which allows the discrimination between viable cells, early apoptotic cells, late apoptotic/necrotic cells or necrotic cells.\n(§4) In an embodiment, MCF-7, Hs578t and 786-O cells were seeded in 6-well culture plates and allowed to adhere over 18-20 hours in a complete DMEM (for MCF-7 and Hs578t cells) and complete RPMI (for 786-O cells) medium to detect apoptosis via flow cytometry analysis. […] Triplicates were performed in each experiment. Floating and adherent cells were collected and combined by centrifugation. Elimination of the supernatant was followed by addition of 1 mL of Binding Buffer. 8 μL FITC annexin V (556419, BD Pharmingen) and 30 μl of PI (50 μg/mL, P1304MP, Invitrogen) were added to the cell pellet. Samples were incubated in the dark for 15 min at room temperature. A further 200 μL of Binding Buffer was added to each sample. PI signal was measured using FACS LSRII flow cytometer (BD Biosciences®) with 488 nm excitation laser. The annexin V signal was collected through a 488 nm blocking filter, a 550 nm long-pass dichroic with a 525 nm band pass. Signals were captured and FACS Diva was used as the acquisition software. The percentage of cells in each phase was analysed using the FlowJo 7.6 (Tree Star®) software. Three independent biological replicates were performed."}, "[4]": {"test_system": "glioma cell line GL18", "assay": "Cell viability MTS assay, GL18", "type": "cell-based", "conditions": "Homo sapiens, 72 hours", "method": "as §1, §2"}, "[5]": {"test_system": "acute leukemia cell line KG-1", "assay": "Cell viability MTS assay, KG-1", "type": "cell-based", "conditions": "Homo sapiens, 72 hours", "method": "as §1, §2"}, "[6]": {"test_system": "glioma cell line GAMG", "assay": "Cell viability MTS assay, GAMG", "type": "cell-based", "conditions": "Homo sapiens, 72 hours", "method": "as §1\nas §2, with “used.” for “used. GBM cells were cultures in DMEM (Biochrom-Merck Millipore), all supplemented with 10% FBS. The Renal cell carcinoma cell lines A498, 786-O, Caki-2 and HK2 were obtained from ATCC. The cancer cell line A498 was cultured in MEM medium (Biochrom®-Merck Millipore), 786-O was cultured in RPMI 1640 medium (Biochrom®-Merck Millipore), Caki-2 was cultured in Mc Coys medium (Biochrom®-Merck Millipore) and HK2 was cultured in RPMI 1640 medium (Biochrom®-Merck Millipore). All the media were supplemented with 10% heat inactivated FBS (Biochrom®-Merck Millipore) and 1% antibiotic/antimitotic mixture (Invitrogen®). All cells were grown in a humidified incubator at 37° C. and 5% CO2.”"}, "[7]": {"test_system": "MCF-7 cells", "assay": "Annexin V/PI flow cytometry, MCF-7", "type": "cell-based, human", "conditions": "IC50 concentration; 24 h", "source_text": "as §3\nas §4, with “The annexin V signal was collected through a 488 nm blocking filter, a 550 nm long-pass dichroic with a 525 nm band pass. Signals were captured and FACS Diva was used as the acquisition software.” left out, “Three independent biological replicates were performed.” left out"}}}
{"smiles": "COc1cccc2c1Oc1nc(-c3ccccc3)[nH]c1C2", "note": "[MC350, 5-methoxy-2-phenyl-3,9-dihydrochromeno[2,3-d]imidazoles]", "values": [{"measurement": "effect on cell proliferation (BrdU)", "setting": "[1]", "result": "decrease cell proliferation"}]}
{"smiles": "COc1cccc2c1Oc1nc(-c3ccc(F)cc3)[nH]c1C2C1c2cccc(OC)c2Oc2nc(-c3ccc(F)cc3)[nH]c21", "note": "(stereo not drawn) [MC406, 2,2′-bis(4-fluorophenyl)-5,5′-dimethoxy-1,1,9,9′-tetrahydro-9,9′-bichromeno[2,3-]imidazoles]", "values": [{"measurement": "IC50", "setting": "[2]", "result": 0.12, "unit": "µM"}, {"measurement": "induction of cell death by apoptosis (annexin V/PI)", "setting": "[3]", "result": "induced cell death by apoptosis"}, {"measurement": "IC50", "setting": "[4]", "result": 0.3, "unit": "µM"}, {"measurement": "IC50", "setting": "[5]", "result": 1.01, "unit": "µM"}, {"measurement": "IC50", "setting": "[6]", "result": 0.22, "unit": "µM"}]}
{"smiles": "COc1cccc2c1Oc1nc(-c3ccc(Br)cc3)[nH]c1C2", "note": "[MC408, 2-(4-bromophenyl)-5-methoxy-3,9-dihydrochromeno[2,3-d]imidazoles]", "values": [{"measurement": "induction of cell death by apoptosis (annexin V/PI)", "setting": "[7]", "result": "inducing cell death by apoptosis (early apoptosis)"}, {"measurement": "IC50", "setting": "[2]", "result": 0.19, "unit": "µM"}, {"measurement": "induction of cell death by apoptosis (annexin V/PI)", "setting": "[3]", "result": "inducing cell death by apoptosis (early apoptosis)"}, {"measurement": "IC50", "setting": "[4]", "result": 1.6, "unit": "µM"}, {"measurement": "IC50", "setting": "[5]", "result": 0.64, "unit": "µM"}]}
{"smiles": "COc1cccc2c1Oc1nc(-c3ccc(F)cc3)[nH]c1C2", "note": "[MC409, 2-(4-fluorophenyl)-5-methoxy-3,9-dihydrochromeno[2,3-d]imidazoles]", "values": [{"measurement": "IC50", "setting": "[2]", "result": 0.37, "unit": "µM"}, {"measurement": "induction of cell death by apoptosis (annexin V/PI)", "setting": "[3]", "result": "induced cell death by apoptosis"}, {"measurement": "IC50", "setting": "[4]", "result": 0.6, "unit": "µM"}, {"measurement": "IC50", "setting": "[5]", "result": 1.02, "unit": "µM"}, {"measurement": "IC50", "setting": "[6]", "result": 0.43, "unit": "µM"}]}
{"smiles": "COc1cccc2c1Oc1nc(-c3ccc(O)cc3)[nH]c1C2", "note": "[MC413, 4-(5-methoxy-3,9-dihydrochromeno[2,3-d]imidazol-2-yl)phenol]", "values": [{"measurement": "effect on cell proliferation (BrdU)", "setting": "[1]", "result": "decrease cell proliferation"}]}
{"smiles": "COc1cccc2c1Oc1nc(-c3ccc(Br)cc3)[nH]c1C2C1c2cccc(OC)c2Oc2nc(-c3ccc(Br)cc3)[nH]c21", "note": "(stereo not drawn) [MC421, 2,2′-bis(4-bromophenyl)-5,5′-dimethoxy-1,1,9,9′-tetrahydro-9,9′-bichromeno[2,3-]imidazoles]", "values": [{"measurement": "induction of cell death by apoptosis (annexin V/PI)", "setting": "[7]", "result": "inducing cell death by apoptosis (early apoptosis)"}, {"measurement": "IC50", "setting": "[2]", "result": 0.18, "unit": "µM"}, {"measurement": "induction of cell death by apoptosis (annexin V/PI)", "setting": "[3]", "result": "inducing cell death by apoptosis (early apoptosis)"}, {"measurement": "IC50", "setting": "[4]", "result": 0.2, "unit": "µM"}, {"measurement": "effect on cell proliferation (BrdU)", "setting": "[1]", "result": "decrease cell proliferation"}, {"measurement": "IC50", "setting": "[5]", "result": 0.93, "unit": "µM"}, {"measurement": "IC50", "setting": "[6]", "result": 0.079, "unit": "µM"}]}
